pEC50: −log10 of the molar value.
Tested on: HCV (Ib) RNA replication
Assay: Cell-based luciferase reporter HCV (1b) RNA replication assay (replicon cell lines Huh-7 5.2 and ET)
Design: species or system Hepatitis C virus
Conditions: Hepatitis C virus, Huh-7, 96 h, HCV 1b genotype replicon, luciferase readout, 4 days incubation; read-out: EC50_1b
Summary of the method: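 Compounds were tested at eleven concentrations in duplicate over 4 days at 37 °C, 5% CO2. The cells were luciferase-reporter HCV 1b replicon lines 5.2 (NS5A adaptive mutation) or ET (NS4B mutation). Luminescence of lysates was measured, and IC50s were derived by nonlinear curve fitting.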

| Structure (SMILES) | pEC50 |
| --- | --- |
| COC(=O)N[C@H](CC1CCC1)C(=O)N1CCC[C@H]1c1nc2ccc(C#Cc3ccc4nc([C@@H]5CCCN5C(=O)[C@@H](CC5CCC5)NC(=O)OC)[nH]c4c3)cc2[nH]1 [Compound 142] | ≥ 8.30 |
| COC(=O)N[C@H](C(=O)N1CCCC[C@H]1c1nc2ccc(-c3ccc(-c4ccc5nc([C@@H]6CCCCN6C(=O)[C@@H](NC(=O)OC)C(C)C)[nH]c5c4)cc3)cc2[nH]1)C(C)C [Compound 148] | ≥ 8.30 |
| COC(=O)N[C@H](C(=O)N1CCCC[C@H]1c1nc2cc(C#Cc3ccc4[nH]c([C@@H]5CCCN5C(=O)[C@@H](NC(=O)OC)C(C)C)nc4c3)ccc2[nH]1)C(C)C [Compound 60] | ≥ 8.30 |
| COC(=O)NC(C(=O)N1CCCC1c1nc2cc(-c3ccc(-c4ccc5nc(C6CCCN6C(=O)C(NC(=O)OC)C(C)(C)C)[nH]c5c4)cc3)ccc2[nH]1)C(C)(C)C (stereo not drawn) [Compound 190] | ≥ 8.30 |
| COC(=O)N[C@H](C(=O)N1CCC[C@H]1c1nc2ccc(-c3ccc(-c4ccc5nc([C@@H]6CCCN6C(=O)[C@@H](NC(=O)OC)C(C)C)n(C)c5c4)cc3)cc2n1C)C(C)C [Compound 259] | ≥ 8.30 |
| C[C@H](C(=O)N1CCC[C@H]1c1nc2cc(C#Cc3ccc4[nH]c([C@@H]5CCCN5C(=O)[C@@H](C)N5CCCC5=O)nc4c3)ccc2[nH]1)N1CCCC1=O [Compound 83] | ≥ 8.30 |
| COC(=O)N[C@H](C(=O)N1C[C@@H](C)C[C@H]1c1nc2cc(-c3ccc(-c4ccc5[nH]c([C@@H]6C[C@H](C)CN6C(=O)[C@@H](Nc6ncccn6)C(C)C)nc5c4)cc3)ccc2[nH]1)C(C)C [Compound 262] | ≥ 8.30 |
| CC(C)[C@H](NC(=O)O[C@H]1CCOC1)C(=O)N1CCC[C@H]1c1nc2cc(-c3ccsc3-c3ccc4[nH]c([C@@H]5CCCN5C(=O)[C@@H](NC(=O)O[C@H]5CCOC5)C(C)C)nc4c3)ccc2[nH]1 [Compound 47, bis((S)-tetrahydrofuran-3-yl)-(2S,2′S)-1,1′-((2S,2′S)-2,2′-(5,5′-(thiophene-2,3-diyl)bis(1H-benzo[d]imidazole-5,2-diyl))bis(pyrrolidine-2,1-diyl))bis(3-methyl-1-oxobutane-2,1-diyl)dicarbamate] | 5.30 to 8.30 |
| O=C(CC1CC1)N1CCC[C@H]1c1nc2cc(C#Cc3ccc4[nH]c([C@@H]5CCCN5C(=O)CC5CC5)nc4c3)ccc2[nH]1 [Compound 108] | 5.30 to 8.30 |
| COC(=O)N[C@H](C(=O)N1CCC[C@H]1c1nc2cc(C#Cc3ccc4nc([C@@H]5CCCN5C(=O)[C@@H](O)C(C)C)[nH]c4c3)ccc2[nH]1)C(C)C [Compound 76] | ≥ 8.30 |
| COC(=O)N(C)[C@H](C(=O)N1C[C@@H](C)C[C@H]1c1nc2cc(-c3csc4c(-c5ccc6[nH]c([C@@H]7C[C@H](C)CN7C(=O)[C@H](C(C)C)N(C)C(=O)OC)nc6c5)csc34)ccc2[nH]1)C(C)C [Compound 290] | ≥ 8.30 |
| COC(=O)N[C@H](C(=O)N1CCC[C@H]1c1nc2cc(-c3ccc(-c4ccc5nc([C@@H]6CCCN6C(=O)[C@@H](NC(=O)OC)C(C)C)[nH]c5c4)cc3F)ccc2[nH]1)C(C)C [Compound 9, ((S)-1-{(S)-2-[5-(2-Fluoro-4-{2-[(S)-1-((S)-2-methoxycarbonylamino-3-methyl-butyryl)-pyrrolidin-2-yl]-1H-benzoimidazol-5-yl}-phenyl)-1H-benzoimidazol-2-yl]-pyrrolidine-1-carbonyl}-2-methyl-propyl)-carbamic acid methyl ester] | ≥ 8.30 |
| COC(=O)N(C)[C@H](C(=O)N1C[C@@H](C)C[C@H]1c1nc2ccc(-c3ccc(-c4ccc5nc([C@@H]6C[C@H](C)CN6C(=O)[C@H](C(C)C)N(C)C(=O)OC)n(C)c5c4)cc3)cc2[nH]1)C(C)C [Compound 296] | ≥ 8.30 |
| CC(C)(C)OC(=O)NC1(C(=O)N2CCC[C@H]2c2nc3cc(C#Cc4ccc5[nH]c([C@@H]6CCCN6C(=O)C6(NC(=O)OC(C)(C)C)CCC6)nc5c4)ccc3[nH]2)CCC1 [Compound 130] | 5.30 to 8.30 |
| COC(=O)N[C@H](C(=O)N1CCC[C@H]1c1nc2cc(-c3ccc(-c4ccc5[nH]c([C@@H]6CCCN6C(=O)[C@@H](NC(=O)OC)C(C)C)nc5c4)c(Cl)c3)ccc2[nH]1)C(C)C [Compound 10, ((S)-1-{(S)-2-[5-(2-Chloro-4-{2-[(S)-1-((S)-2-methoxycarbonylamino-3-methyl-butyryl)-pyrrolidin-2-yl]-1H-benzoimidazol-5-yl}-phenyl)-1H-benzoimidazol-2-yl]-pyrrolidine-1-carbonyl}-2-methyl-propyl)-carbamic acid methyl ester] | ≥ 8.30 |
| COC(=O)N(C)[C@H](C(=O)N1C[C@@H](C)C[C@H]1c1nc2cc(-c3cc(C)c(-c4ccc5[nH]c([C@@H]6C[C@H](C)CN6C(=O)[C@H](C(C)C)N(C)C(=O)OC)nc5c4)cc3C)ccc2[nH]1)C(C)C [Compound 277] | ≥ 8.30 |
| COC(=O)N[C@H](C(=O)N1CCC[C@H]1c1nc2cc(C#Cc3ccc4[nH]c([C@@H]5CCCN5C(=O)[C@@H](NC(=O)OC)[C@@H](C)OC)nc4c3)ccc2[nH]1)[C@@H](C)OC [Compound 206] | ≥ 8.30 |
| CC[C@@H](NC(C)=O)C(=O)N1CCC[C@H]1c1nc2cc(C#Cc3ccc4[nH]c([C@@H]5CCCN5C(=O)[C@@H](CC)NC(C)=O)nc4c3)ccc2[nH]1 [Compound 104] | 5.30 to 8.30 |
| COC(=O)NC(C(=O)N1C[C@H](O)C[C@H]1c1nc2ccc(-c3ccc(-c4ccc5[nH]c([C@@H]6C[C@@H](O)CN6C(=O)[C@@H](NC(=O)OC)C(C)C)nc5c4)cc3)cc2[nH]1)C(C)C (stereo in doubt) [Compound 26, ((S)-1-{(2S,4R)-4-Hydroxy-2-[5-(4-{2-[(2S,4R)-4-hydroxy-1-((S)-2-methoxycarbonylamino-3-methyl-butyryl)-pyrrolidin-2-yl]-1H-benzoimidazol-5-yl}-phenyl)-1H-benzoimidazol-2-yl]-pyrrolidine-1-carbonyl}-2-methyl-propyl)-carbamic acid methyl ester] | ≥ 8.30 |
| COC(=O)N[C@H](C(=O)N1CCC[C@H]1c1nc2cc(-c3csc(-c4ccc5[nH]c([C@@H]6CCCN6C(=O)[C@@H](NC(=O)OC)C(C)C)nc5c4)n3)ccc2[nH]1)C(C)C [Compound 159] | ≥ 8.30 |
| COC(=O)N[C@H](C(=O)N1C[C@@H](C)C[C@H]1c1nc2cc(-c3ccc(-c4ccc5[nH]c([C@@H]6C[C@H](C)CN6C(=O)[C@H](C(C)C)N(C)C(=O)OC)nc5c4)cc3)ccc2[nH]1)C(C)C [Compound 253] | ≥ 8.30 |
| COC(=O)N[C@H](C(=O)N1CCC[C@H]1c1nc2cc(-c3ccc(-c4ccc5[nH]c([C@@H]6CCCN6C(=O)[C@@H](NC(=O)OC)C(C)C)nc5c4)c4ncccc34)ccc2[nH]1)C(C)C [Compound 163] | ≥ 8.30 |
| COC(=O)N(C(C)C)[C@H](C(=O)N1C[C@@H](C)C[C@H]1c1nc2cc(-c3ccc(-c4ccc5nc([C@@H]6C[C@H](C)CN6C(=O)[C@H](C(C)C)N(C(=O)OC)C(C)C)[nH]c5c4)cc3)ccc2[nH]1)C(C)C [Compound 279] | ≥ 8.30 |
| COC(=O)N[C@@H](C(=O)N1CCC[C@H]1c1nc2cc(C#Cc3ccc4[nH]c([C@@H]5CCCN5C(=O)[C@H](NC(=O)OC)c5ccccc5)nc4c3)ccc2[nH]1)c1ccccc1 [Compound 33, {(R)-2-[(S)-2-(5-{2-[(S)-1-((R)-2-Methoxycarbonylamino-2-phenyl-acetyl)-pyrrolidin-2-yl]-1H-benzoimidazol-5-ylethynyl}-1H-benzoimidazol-2-yl)-pyrrolidin-1-yl]-2-oxo-1-phenyl-ethyl}-carbamic acid methylester] | ≥ 8.30 |
